# Laboratory results published in patent US8952024B2, “Herbicidal pyrimidone derivatives” (E I du Pont de Nemours and Company, priority 2009, dated 2015).
# Experiments:
# Type in all cases: in vivo
# [1] = tested on: velvetleaf (Abutilon theophrasti); assay: Test A pre-/postemergence plant response
# Source text: (§1) Seeds of barnyardgrass (Echinochloa crus-galli), large crabgrass (Digitaria sanguinalis), giant foxtail (Setaria faberii), morningglory (Ipomoea spp.), pigweed (Amaranthus retroflexus), velvetleaf (Abutilon theophrasti), wheat (Triticum aestivum) and corn (Zea mays) were planted into a blend of loam soil and sand and treated preemergence with a directed soil spray using test chemicals formulated in a non-phytotoxic solvent mixture which included a surfactant. At the same time these species were also treated with postemergence applications of test compounds formulated in the same manner.
# (§2) Plants ranged in height from two to ten cm and were in the one- to two-leaf stage for the postemergence treatment. Treated plants and untreated controls were maintained in a greenhouse for approximately ten days, after which time all treated plants were compared to untreated controls and visually evaluated for injury. Plant response ratings, summarized in Table A, are based on a 0 to 100 scale where 0 is no effect and 100 is complete control. A dash (-) response means no test result.
# corn (Zea mays) = assay: Test A pre-/postemergence plant response
# Source text: as §1, §2
# [2] = tested on: large crabgrass (Digitaria sanguinalis); assay: Test A pre-/postemergence plant response
# Source text: as §1, §2
# [3] = tested on: morningglory (Ipomoea spp.); assay: Test A pre-/postemergence plant response
# Source text: as §1, §2
# [4] = tested on: pigweed (Amaranthus retroflexus); assay: Test A pre-/postemergence plant response
# Source text: as §1, §2
# [5] = tested on: wheat (Triticum aestivum); assay: Test A pre-/postemergence plant response
# Source text: as §1, §2
# [6] = tested on: barnyardgrass (Echinochloa crus-galli); assay: Test A pre-/postemergence plant response
# Source text: as §1, §2
# [7] = tested on: giant foxtail (Setaria faberii); assay: Test A pre-/postemergence plant response
# Source text: as §1, §2
# [8] = tested on: ducksalad (Heteranthera limosa); assay: Test B flooded paddy test; conditions: for Plant response rating, Flood, Ducksalad: 250 g ai/ha, flooded paddy test, visual rating on 0 to 100 scale (0 no effect, 100 complete control) after 13 to 15 days; for Plant response rating, Ducksalad: Flood (flooded paddy test), 13 to 15 days; for Ducksalad plant response rating: Flood, 31 g ai/ha, scale 0 to 100 (0 no effect, 100 complete control)
# Source text: (§3) Plant species in the flooded paddy test consisted of rice (Oryza sativa), umbrella sedge (Cyperus difformis), ducksalad (Heteranthera limosa) and barnyardgrass (Echinochloa crus-galli) grown to the 2-leaf stage for testing. At the time of treatment, test pots were flooded with water to 3 cm above the soil surface, treated by application of test compounds directly to the paddy water, and then maintained at that water depth for the duration of the test.
# (§4) Treated plants and controls were maintained in a greenhouse for 13 to 15 days, after which time all treated plants were visually evaluated and compared to controls. Plant response ratings, summarized in Table B, are based on a scale of 0 to 100 where 0 is no effect and 100 is complete control. A dash (-) response means no test result.
# [9] = tested on: umbrella sedge (Cyperus difformis); assay: Test B flooded paddy test; conditions: for Plant response rating, Flood, Sedge, Umbrella: 250 g ai/ha, flooded paddy test, visual rating on 0 to 100 scale (0 no effect, 100 complete control) after 13 to 15 days; for Plant response rating, Sedge, Umbrella: Flood (flooded paddy test), 13 to 15 days; for Sedge, Umbrella plant response rating: Flood, 31 g ai/ha, scale 0 to 100 (0 no effect, 100 complete control)
# Source text: as §3, §4
# rice (Oryza sativa) = assay: Test B flooded paddy test; conditions: for Plant response rating, Flood, Rice: 250 g ai/ha, flooded paddy test, visual rating on 0 to 100 scale (0 no effect, 100 complete control) after 13 to 15 days; for Plant response rating, Rice: Flood (flooded paddy test), 13 to 15 days; for Rice plant response rating: Flood, 31 g ai/ha, scale 0 to 100 (0 no effect, 100 complete control)
# Source text: as §3, §4
# [10] = tested on: barnyardgrass (Echinochloa crus-galli); assay: Test B flooded paddy test; conditions: for Plant response rating, Flood, Barnyardgrass: 250 g ai/ha, flooded paddy test, visual rating on 0 to 100 scale (0 no effect, 100 complete control) after 13 to 15 days; for Plant response rating, Barnyardgrass: Flood (flooded paddy test), 13 to 15 days; for Barnyardgrass plant response rating: Flood, 31 g ai/ha, scale 0 to 100 (0 no effect, 100 complete control)
# Source text: as §3, §4
# [11] = Postemergence, 125 g ai/ha, visual injury, 0 to 100 scale (0 no effect, 100 complete control), approx. ten days
# [12] = Postemergence, 500 g ai/ha, visual injury, 0 to 100 scale (0 no effect, 100 complete control), approx. ten days
# [13] = Preemergence, 125 g ai/ha, 0 to 100 scale where 0 is no effect and 100 is complete control, approximately ten days
# [14] = Preemergence, 500 g ai/ha, 0 to 100 scale, 0 = no effect, 100 = complete control
# [15] = Postemergence, 125 g ai/ha, 0 to 100 scale where 0 is no effect and 100 is complete control
# [16] = 62 g ai/ha, scale of 0 to 100 where 0 is no effect and 100 is complete control
# [17] = 125 g ai/ha, scale 0 to 100, 0 is no effect, 100 is complete control
# [18] = Preemergence, 125 g ai/ha, 0 to 100 scale, 0 = no effect, 100 = complete control
# [19] = Preemergence, 500 g ai/ha, visual injury, 0 to 100 scale (0 no effect, 100 complete control), approx. ten days
# [20] = Postemergence, 500 g ai/ha, 0 to 100 scale, 0 = no effect, 100 = complete control, approx. ten days
# [21] = 62 g ai/ha, scale 0 to 100, 0 is no effect, 100 is complete control
smiles,measurement,setting,value
O=C(C1=C(O)C2CCC(C2)C1=O)c1cnc(-c2cc(F)c(F)c(F)c2)n(C2CCCCC2)c1=O (stereo not drawn) [Compound 251],"Plant response rating, Velvetleaf",[1]; [11],100
same,Velvetleaf plant response rating,[1]; [12],100
same,"Plant response rating, Velvetleaf",[1]; [13],50
same,"Plant response rating, Velvetleaf",[1]; [14],70
same,"Plant response rating, Corn",corn (Zea mays); [15],0
same,Corn plant response rating,corn (Zea mays); [12],20
same,"Plant response rating, Corn",corn (Zea mays); [13],0
same,"Plant response rating, Corn",corn (Zea mays); [14],0
same,"Plant response rating, Crabgrass, Large",[2]; [15],50
same,"Crabgrass, Large plant response rating",[2]; [12],90
same,"Plant response rating, Crabgrass, Large",[2]; [13],20
same,"Plant response rating, Crabgrass, Large",[2]; [14],80
same,"Plant response rating, Morningglory",[3]; [11],100
same,Morningglory plant response rating,[3]; [12],100
same,"Plant response rating, Morningglory",[3]; [13],0
same,"Plant response rating, Morningglory",[3]; [14],40
same,"Plant response rating, Pigweed",[4]; [11],70
same,Pigweed plant response rating,[4]; [12],80
same,"Plant response rating, Pigweed",[4]; [13],0
same,"Plant response rating, Pigweed",[4]; [14],60
same,"Plant response rating, Wheat",[5]; [11],0
same,Wheat plant response rating,[5]; [12],10
same,"Plant response rating, Wheat",[5]; [13],0
same,"Plant response rating, Wheat",[5]; [14],0
same,"Plant response rating, Barnyardgrass",[6]; [15],80
same,Barnyardgrass plant response rating,[6]; [12],100
same,"Plant response rating, Barnyardgrass",[6]; [13],0
same,"Plant response rating, Barnyardgrass",[6]; [14],20
same,"Plant response rating, Foxtail, Giant",[7]; [11],50
same,"Foxtail, Giant plant response rating",[7]; [12],90
same,"Plant response rating, Foxtail, Giant",[7]; [13],10
same,"Plant response rating, Foxtail, Giant",[7]; [14],40
same,"Plant response rating, Flood, Ducksalad",[8],80
same,"Plant response rating, Ducksalad",[8]; [16],0
same,"Plant response rating, Ducksalad",[8]; [17],50
same,Ducksalad plant response rating,[8],0
same,"Plant response rating, Flood, Sedge, Umbrella",[9],75
same,"Plant response rating, Sedge, Umbrella",[9]; [16],50
same,"Plant response rating, Sedge, Umbrella",[9]; [17],65
same,"Sedge, Umbrella plant response rating",[9],0
same,"Plant response rating, Flood, Rice",rice (Oryza sativa),10
same,"Plant response rating, Rice",rice (Oryza sativa); [16],0
same,"Plant response rating, Rice",rice (Oryza sativa); [17],0
same,Rice plant response rating,rice (Oryza sativa),0
same,"Plant response rating, Flood, Barnyardgrass",[10],20
same,"Plant response rating, Barnyardgrass",[10]; [16],0
same,"Plant response rating, Barnyardgrass",[10]; [17],0
same,Barnyardgrass plant response rating,[10],0
CCc1ccc(-n2c(-c3cccc(Br)c3)ncc(C(=O)C3=C(O)CCCC3=O)c2=O)cc1 [Compound 177],"Plant response rating, Velvetleaf",[1]; [15],90
same,Velvetleaf plant response rating,[1]; [12],100
same,"Plant response rating, Velvetleaf",[1]; [18],10
same,"Plant response rating, Velvetleaf",[1]; [14],40
same,"Plant response rating, Corn",corn (Zea mays); [15],0
same,Corn plant response rating,corn (Zea mays); [12],0
same,"Plant response rating, Corn",corn (Zea mays); [18],0
same,"Plant response rating, Corn",corn (Zea mays); [14],20
same,"Plant response rating, Crabgrass, Large",[2]; [15],30
same,"Crabgrass, Large plant response rating",[2]; [12],70
same,"Plant response rating, Crabgrass, Large",[2]; [18],0
same,"Plant response rating, Crabgrass, Large",[2]; [14],10
same,"Plant response rating, Morningglory",[3]; [15],0
same,Morningglory plant response rating,[3]; [12],10
same,"Plant response rating, Morningglory",[3]; [18],0
same,"Plant response rating, Pigweed",[4]; [15],100
same,Pigweed plant response rating,[4]; [12],100
same,"Plant response rating, Pigweed",[4]; [18],0
same,"Plant response rating, Pigweed",[4]; [14],50
same,"Plant response rating, Wheat",[5]; [15],0
same,Wheat plant response rating,[5]; [12],0
same,"Plant response rating, Wheat",[5]; [18],0
same,"Plant response rating, Wheat",[5]; [14],0
same,"Plant response rating, Barnyardgrass",[6]; [15],80
same,Barnyardgrass plant response rating,[6]; [12],100
same,"Plant response rating, Barnyardgrass",[6]; [18],0
same,"Plant response rating, Barnyardgrass",[6]; [14],10
same,"Plant response rating, Foxtail, Giant",[7]; [15],0
same,"Foxtail, Giant plant response rating",[7]; [12],40
same,"Plant response rating, Foxtail, Giant",[7]; [18],0
same,"Plant response rating, Foxtail, Giant",[7]; [14],20
same,"Plant response rating, Ducksalad",[8]; [17],70
same,Ducksalad plant response rating,[8],30
same,"Plant response rating, Sedge, Umbrella",[9]; [17],75
same,"Sedge, Umbrella plant response rating",[9],60
same,"Plant response rating, Rice",rice (Oryza sativa); [17],20
same,Rice plant response rating,rice (Oryza sativa),15
same,"Plant response rating, Barnyardgrass",[10]; [17],15
same,Barnyardgrass plant response rating,[10],0
CSc1ncc(C(=O)C2=C(O)CCCC2=O)c(=O)n1-c1ccccc1 [Compound 30],Velvetleaf plant response rating,[1]; [11],100
same,"Plant response rating, Velvetleaf",[1]; [18],20
same,"Plant response rating, Velvetleaf",[1]; [19],70
same,Corn plant response rating,corn (Zea mays); [11],0
same,"Plant response rating, Corn",corn (Zea mays); [20],0
same,"Plant response rating, Corn",corn (Zea mays); [18],0
same,"Plant response rating, Corn",corn (Zea mays); [19],0
same,"Crabgrass, Large plant response rating",[2]; [11],30
same,"Plant response rating, Crabgrass, Large",[2]; [20],60
same,"Plant response rating, Crabgrass, Large",[2]; [18],0
same,"Plant response rating, Crabgrass, Large",[2]; [19],60
same,Morningglory plant response rating,[3]; [11],30
same,"Plant response rating, Morningglory",[3]; [20],50
same,"Plant response rating, Morningglory",[3]; [18],0
same,"Plant response rating, Morningglory",[3]; [19],60
same,Pigweed plant response rating,[4]; [11],70
same,"Plant response rating, Pigweed",[4]; [20],80
same,"Plant response rating, Pigweed",[4]; [18],0
same,"Plant response rating, Pigweed",[4]; [19],80
same,Wheat plant response rating,[5]; [11],0
same,"Plant response rating, Wheat",[5]; [20],0
same,"Plant response rating, Wheat",[5]; [18],0
same,"Plant response rating, Wheat",[5]; [19],0
same,Barnyardgrass plant response rating,[6]; [11],10
same,"Plant response rating, Barnyardgrass",[6]; [20],30
same,"Plant response rating, Barnyardgrass",[6]; [18],0
same,"Plant response rating, Barnyardgrass",[6]; [19],40
same,"Foxtail, Giant plant response rating",[7]; [11],10
same,"Plant response rating, Foxtail, Giant",[7]; [20],40
same,"Plant response rating, Foxtail, Giant",[7]; [18],0
same,"Plant response rating, Foxtail, Giant",[7]; [19],10
same,"Plant response rating, Flood, Ducksalad",[8],50
same,"Plant response rating, Ducksalad",[8]; [21],20
same,"Plant response rating, Flood, Sedge, Umbrella",[9],50
same,"Plant response rating, Sedge, Umbrella",[9]; [21],20
same,"Plant response rating, Flood, Rice",rice (Oryza sativa),0
same,"Plant response rating, Rice",rice (Oryza sativa); [21],0
same,"Plant response rating, Flood, Barnyardgrass",[10],0
same,"Plant response rating, Barnyardgrass",[10]; [21],0
